The source of these data is ChEMBL document CHEMBL1138742, “Potent and orally bioavailable non-peptide antagonists at the human bradykinin B(1) receptor based on a 2-alkylamino-5-sulfamoylbenzamide core” (J Med Chem, 2004).

Where only a bound is given, the exact number is not on record here.

For assay [1], the target named is T1, B1 bradykinin receptor (Homo sapiens, UniProt P46663).
T1 sequence (P46663 whole entry): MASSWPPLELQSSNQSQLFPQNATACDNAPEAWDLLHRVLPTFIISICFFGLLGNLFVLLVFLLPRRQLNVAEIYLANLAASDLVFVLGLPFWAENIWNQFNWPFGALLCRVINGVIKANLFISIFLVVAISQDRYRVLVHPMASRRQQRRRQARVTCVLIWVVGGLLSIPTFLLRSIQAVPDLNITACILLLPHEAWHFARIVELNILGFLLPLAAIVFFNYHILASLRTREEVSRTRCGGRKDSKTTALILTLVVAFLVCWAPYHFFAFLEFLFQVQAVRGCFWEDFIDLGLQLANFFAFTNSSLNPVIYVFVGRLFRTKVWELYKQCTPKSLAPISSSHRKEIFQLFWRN
Briefly: Binding affinity for Bradykinin receptor B1 expressed in HEK293 cells. The assay is classed as cell-based.

The target of the next assay is T2, B2 bradykinin receptor (Homo sapiens, UniProt P30411).
T2 sequence (P30411 whole entry): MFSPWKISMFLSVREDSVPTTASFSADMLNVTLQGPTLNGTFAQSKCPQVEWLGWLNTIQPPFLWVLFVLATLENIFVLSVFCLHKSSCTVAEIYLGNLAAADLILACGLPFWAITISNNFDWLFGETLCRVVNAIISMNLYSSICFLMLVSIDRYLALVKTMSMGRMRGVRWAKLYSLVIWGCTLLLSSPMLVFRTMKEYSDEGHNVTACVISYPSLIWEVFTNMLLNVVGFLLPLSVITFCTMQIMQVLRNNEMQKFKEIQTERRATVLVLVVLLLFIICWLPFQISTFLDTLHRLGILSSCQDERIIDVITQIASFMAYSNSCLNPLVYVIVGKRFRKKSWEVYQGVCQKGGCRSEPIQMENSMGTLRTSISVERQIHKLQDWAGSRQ
Briefly: Binding affinity for Bradykinin receptor B2 expressed in COS7 cells. The assay is classed as cell-based, COS-7.

Assay [2] addresses T1, B1 bradykinin receptor. In words: Inhibition of Bradykinin receptor B1 expressed in HEK293 cells. The assay is classed as cell-based.

In general, Ki refers to a dissociation constant, usually derived from enzyme kinetics or from competition with a known ligand. A higher Ki goes with weaker binding. Turning to `CN(C)CCCN(CCCN(C)C)C(=O)CCNS(=O)(=O)c1ccc(NCC(c2ccccc2)c2ccccc2)c(Cl)c1`, the Ki at B1 bradykinin receptor [1] was over 1000 nM.

Consider `CN(C)CCCN(CCCN(C)C)C(=O)CCNS(=O)(=O)c1ccc(NCC(c2ccccc2)c2ccccc2)c([N+](=O)[O-])c1`, for which the affinity on B1 bradykinin receptor [1] corresponds to a Ki of 140 nM. Still for that read-out and setting: as for `CN(C)CCCN(CCCN(C)C)S(=O)(=O)c1ccc(NCC(c2ccccc2)c2ccccc2)c([N+](=O)[O-])c1`, the figure is 230 nM. The same measure, in the same setting: the figure for `CC(C)N1CCN(C(=O)C2CCN(S(=O)(=O)c3ccc(NCC(c4ccccc4)c4ccccc4)c(C(=O)N4CCOCC4)c3)CC2)CC1` is 10 nM; for `CN(C)CCCN(CCCN(C)C)C(=O)C1CCN(S(=O)(=O)c2ccc(NCC(c3ccccc3)c3ccccc3)c(C(=O)N3CCOCC3)c2)CC1` it is 1 nM. What is called IC50 is the point on the concentration scale where inhibition reaches its midpoint. Take `CN(C)CCCN(CCCN(C)C)S(=O)(=O)c1ccc(NC(c2ccccc2)c2ccccc2)c([N+](=O)[O-])c1`: the values for the Ki on B2 bradykinin receptor and at B1 bradykinin receptor [1] were 1400 nM and 3000 nM, respectively. The IC50 on B1 bradykinin receptor [2] was 6.2 µM.

`CN(C)CCCN(CCCN(C)C)C(=O)CCNS(=O)(=O)c1ccc(NCC(c2ccccc2)c2ccccc2)c(C(=O)N2CCOCC2)c1`: the affinity on B1 bradykinin receptor [1], expressed as Ki, was 10 nM. `CN1CCN(C(=O)C2CCN(S(=O)(=O)c3ccc(NCC(c4ccccc4)c4ccccc4)c(C(=O)N4CCOCC4)c3)CC2)CC1` showed a Ki at B1 bradykinin receptor [1] of 10 nM.

As for `CC(=O)c1cc(S(=O)(=O)NCCC(=O)N(CCCN(C)C)CCCN(C)C)ccc1NCC(c1ccccc1)c1ccccc1`, the Ki on B1 bradykinin receptor [1] was 130 nM. Still for that read-out and setting: as for `CN(C)CCCN(CCCN(C)C)C(=O)C1CCN(S(=O)(=O)c2ccc(NCC(c3ccccc3)c3ccccc3)c([N+](=O)[O-])c2)CC1`, the figure is 10 nM; as for `CN(C)CCCN(CCCN(C)C)S(=O)(=O)c1ccc(NC(Cc2ccccc2)Cc2ccccc2)c([N+](=O)[O-])c1`, 250 nM.
